Test results as given in paper PMC12060349 (BMC Pharmacology & Toxicology, 2025).

How the values were obtained:
[1] = system: healthy Chinese male subjects; test: Safety evaluation; type: in vivo, human (healthy Chinese male subjects)
[2] = system: patients with advanced NSCLC with EGFR mutations; details: FLAURA clinical study; cited from earlier work
[3] = system: healthy Chinese male subjects; test: Safety evaluation; type: in vivo, human (healthy Chinese male subjects); details: Group 2

SMILES: CCC(C)n1ncn(-c2ccc(N3CCN(c4ccc(OCC5COC(Cn6cncn6)(c6ccc(Cl)cc6Cl)O5)cc4)CC3)cc2)c1=O (stereo not shown) [Itraconazole]
- subjects with TEAEs ([1]; Group 1, monotherapy phase with Itraconazole 200 mg QD): 42.9%
- subjects with TEAEs also related to Itraconazole ([1]; Group 1, 13 TEAEs in 10 subjects): 66.7%

SMILES: C=CC(=O)Nc1cc(Nc2nccc(-c3cn(C)c4ccccc34)n2)c(OC)cc1N(C)CCN(C)C [Osimertinib]
- median overall survival [2]: 38.6 months

SMILES: CO[C@H]1/C=C/O[C@@]2(C)Oc3c(C)c(O)c4c(O)c(c(/C=N/N5CCN(C)CC5)c(O)c4c3C2=O)NC(=O)/C(C)=C\C=C\[C@H](C)[C@H](O)[C@@H](C)[C@@H](O)[C@@H](C)[C@H](OC(C)=O)[C@@H]1C [Rifampicin]
- subjects with TEAEs also related to Rifampicin [3]: 20.0%
